pIC50: −log10 of the molar value. Calls of active or inactive are those of the source. The rule behind the calls is not given here.
Columns and labels:
HCT-116 [1] = experiment: Induction of cell cycle arrest in human HCT-116 cells assessed as G0 phase at 1.5 uM measured at 0 hrs by PI staining based flow cytometry analysis (reference value: 0.7 +/- 0.2 %); type: functional
HCT-116 [2] = experiment: Induction of cell cycle arrest in human HCT-116 cells assessed as G2/M phase at 0.75 uM incubated for 24 hrs by PI staining based flow cytometry analysis (reference value: 9.3 +/- 0.8 %); type: functional
HCT-116 [3] = experiment: Induction of cell cycle arrest in human HCT-116 cells assessed as G0 phase at 0.75 uM incubated for 12 hrs by PI staining based flow cytometry analysis (reference value: 2.2 +/- 1.7 %); type: functional
NCI-H460 [4] = experiment: Induction of apoptosis in human NCI-H460 cells assessed as early apoptotic cells at 1.5 uM incubated for 48 hrs by annexin V-FITC and PI staining based flow cytometry analysis (reference value: 2 %); type: functional
NCI-H460 [5] = experiment: Induction of cell cycle arrest in human NCI-H460 cells assessed as G2/M phase at 1.5 uM incubated for 24 hrs by PI staining based flow cytometry analysis (reference value: 21 +/- 6.7 %); type: functional
NCI-H460 [6] = experiment: Induction of apoptosis in human NCI-H460 cells assessed as late apoptotic cells at 6 uM incubated for 48 hrs by annexin V-FITC and PI staining based flow cytometry analysis (reference value: 7.3 %); type: functional
HCT-116 [7] = experiment: Cytotoxicity against human HCT-116 cells assessed as reduction in cell viability incubated for 72 hrs by XTT assay; type: functional, cell-based; details: HCT-116, 72 h
NCI-H460 [8] = experiment: Induction of apoptosis in human NCI-H460 cells assessed as necrotic cells at 3 uM incubated for 48 hrs by annexin V-FITC and PI staining based flow cytometry analysis (reference value: 0.7 %); type: functional
HCT-116 [9] = experiment: Induction of cell cycle arrest in human HCT-116 cells assessed as G1 phase at 1.5 uM measured at 0 hrs by PI staining based flow cytometry analysis (reference value: 52 +/- 5.1 %); type: functional
NCI-H460 [10] = experiment: Induction of cell cycle arrest in human NCI-H460 cells assessed as S phase at 1.5 uM incubated for 24 hrs by PI staining based flow cytometry analysis (reference value: 11.7 +/- 6.1 %); type: functional
HCT-116 [11] = experiment: Induction of cell cycle arrest in human HCT-116 cells assessed as G1 phase at 0.375 uM incubated for 24 hrs by PI staining based flow cytometry analysis (reference value: 55 +/- 9.8 %); type: functional
HCT-116 [12] = experiment: Induction of cell cycle arrest in human HCT-116 cells assessed as G2/M phase at 0.375 uM incubated for 36 hrs by PI staining based flow cytometry analysis (reference value: 23.6 +/- 1 %); type: functional
NCI-H460 [13] = experiment: Induction of cell cycle arrest in human NCI-H460 cells assessed as G0 phase at 3 uM measured at 0 hrs by PI staining based flow cytometry analysis (reference value: 1.3 +/- 0.9 %); type: functional
NCI-H460 [14] = experiment: Induction of apoptosis in human NCI-H460 cells assessed as early apoptotic cells at 3 uM incubated for 48 hrs by annexin V-FITC and PI staining based flow cytometry analysis (reference value: 2 %); type: functional
HCT-116 [15] = experiment: Induction of cell cycle arrest in human HCT-116 cells assessed as G0 phase at 1.5 uM incubated for 24 hrs by PI staining based flow cytometry analysis (reference value: 12.5 +/- 5.4 %); type: functional
NCI-H460 [16] = experiment: Induction of cell cycle arrest in human NCI-H460 cells assessed as G2/M phase at 1.5 uM incubated for 12 hrs by PI staining based flow cytometry analysis (reference value: 22.9 +/- 6.8 %); type: functional
NCI-H460 [17] = experiment: Induction of cell cycle arrest in human NCI-H460 cells assessed as S phase at 0.75 uM incubated for 12 hrs by PI staining based flow cytometry analysis (reference value: 11.2 +/- 4.3 %); type: functional
HCT-116 [18] = experiment: Induction of cell cycle arrest in human HCT-116 cells assessed as G2/M phase at 0.75 uM measured at 0 hrs by PI staining based flow cytometry analysis (reference value: 28.9 +/- 1.4 %); type: functional
HCT-116 [19] = experiment: Induction of cell cycle arrest in human HCT-116 cells assessed as G1 phase at 1.5 uM incubated for 36 hrs by PI staining based flow cytometry analysis (reference value: 57.4 +/- 1.3 %); type: functional
NCI-H1650 = experiment: Cytotoxicity against human NCI-H1650 cells assessed as reduction in cell viability incubated for 72 hrs by XTT assay; type: functional, cell-based; details: NCI-H1650, 72 h
HCT-116 [20] = experiment: Induction of cell cycle arrest in human HCT-116 cells assessed as G1 phase at 0.375 uM measured at 0 hrs by PI staining based flow cytometry analysis (reference value: 52 +/- 5.1 %); type: functional
NCI-H460 [21] = experiment: Induction of cell cycle arrest in human NCI-H460 cells assessed as G0 phase at 3 uM incubated for 24 hrs by PI staining based flow cytometry analysis (reference value: 1.6 +/- 0.6 %); type: functional
HCT-116 [22] = experiment: Induction of cell cycle arrest in human HCT-116 cells assessed as G2/M phase at 0.375 uM incubated for 24 hrs by PI staining based flow cytometry analysis (reference value: 9.3 +/- 0.8 %); type: functional
NCI-H460 [23] = experiment: Induction of cell cycle arrest in human NCI-H460 cells assessed as G2/M phase at 3 uM incubated for 12 hrs by PI staining based flow cytometry analysis (reference value: 22.9 +/- 6.8 %); type: functional
NCI-H460 [24] = experiment: Induction of cell cycle arrest in human NCI-H460 cells assessed as G1 phase at 1.5 uM incubated for 36 hrs by PI staining based flow cytometry analysis (reference value: 57.9 +/- 3.6 %); type: functional
HCT-116 [25] = experiment: Induction of cell cycle arrest in human HCT-116 cells assessed as G0 phase at 0.75 uM incubated for 24 hrs by PI staining based flow cytometry analysis (reference value: 12.5 +/- 5.4 %); type: functional
HCT-116 [26] = experiment: Induction of cell cycle arrest in human HCT-116 cells assessed as S phase at 0.375 uM incubated for 12 hrs by PI staining based flow cytometry analysis (reference value: 15.5 +/- 0.2 %); type: functional
dsDNA = experiment: Induction of pBR322 DNA interstand crosslink at 1 to 20 uM incubated for 2 hrs by agarose gel electrophoresis assay; details: dose 1-20 µM
HCT-116 [27] = experiment: Induction of cell cycle arrest in human HCT-116 cells assessed as G2/M phase at 1.5 uM incubated for 12 hrs by PI staining based flow cytometry analysis (reference value: 21.7 +/- 1.9 %); type: functional
CEM-VLB = experiment: Cytotoxicity against human CEM-VLB cells assessed as reduction in cell viability incubated for 72 hrs by XTT assay; type: functional, cell-based
NCI-H460 [28] = experiment: Induction of cell cycle arrest in human NCI-H460 cells assessed as G0 phase at 0.75 uM measured at 0 hrs by PI staining based flow cytometry analysis (reference value: 1.3 +/- 0.9 %); type: functional
HCT-116 [29] = experiment: Induction of cell cycle arrest in human HCT-116 cells assessed as S phase at 1.5 uM measured at 0 hrs by PI staining based flow cytometry analysis (reference value: 12.4 +/- 6.2 %); type: functional

Question: `OCc1cn2c3ccccc3c3ccccc3c2c1CO` was tested. Which Activity (HCT-116 [1]) did it give?
Answer: 2.2%

Question: And the Activity (HCT-116 [2])?
Answer: 25.6%

Question: What about the Activity (HCT-116 [3]) of the same compound?
Answer: 1.7%

Question: What about the Activity (NCI-H460 [4]) of the same compound?
Answer: 3.6%

Question: What about the Activity (NCI-H460 [5]) of the same compound?
Answer: 25.4%

Question: What about the Activity (NCI-H460 [6]) of the same compound?
Answer: 55.8%

Question: And the pIC50 (HCT-116 [7])?
Answer: 5.95

Question: And the Activity (NCI-H460 [8])?
Answer: 1.6%

Question: What about the Activity (HCT-116 [9]) of the same compound?
Answer: 53.6%

Question: What about the Activity (NCI-H460 [10]) of the same compound?
Answer: 8.6%

Question: And the Activity (HCT-116 [11])?
Answer: 46.7%

Question: What about the Activity (HCT-116 [12]) of the same compound?
Answer: 23.4%

Question: What about the Activity (NCI-H460 [13]) of the same compound?
Answer: 1.3%

Question: And the Activity (NCI-H460 [14])?
Answer: 10.8%

Question: What about the Activity (HCT-116 [15]) of the same compound?
Answer: 6.4%

Question: What about the Activity (NCI-H460 [16]) of the same compound?
Answer: 25.1%

Question: And the Activity (NCI-H460 [17])?
Answer: 14.2%

Question: And the Activity (HCT-116 [18])?
Answer: 28.5%

Question: What about the Activity (HCT-116 [19]) of the same compound?
Answer: 52.3%

Question: What about the pIC50 (NCI-H1650) of the same compound?
Answer: 5.43

Question: And the Activity (HCT-116 [20])?
Answer: 52.9%

Question: And the Activity (NCI-H460 [21])?
Answer: 5.2%

Question: What about the Activity (HCT-116 [22]) of the same compound?
Answer: 17.8%

Question: And the Activity (NCI-H460 [23])?
Answer: 22.8%

Question: And the Activity (NCI-H460 [24])?
Answer: 73.1%

Question: What about the Activity (HCT-116 [25]) of the same compound?
Answer: 2.7%

Question: And the Activity (HCT-116 [26])?
Answer: 16.9%

Question: And the Activity (dsDNA)?
Answer: Active

Question: What about the Activity (HCT-116 [27]) of the same compound?
Answer: 24%

Question: What about the pIC50 (CEM-VLB) of the same compound?
Answer: 6.42

Question: And the Activity (NCI-H460 [28])?
Answer: 1.8%

Question: And the Activity (HCT-116 [29])?
Answer: 12.6%

From ChEMBL document CHEMBL4765365, “Design, synthesis and antitumour evaluation of pyrrolo[1,2-f]-phenanthridine and dibenzo[f,h]pyrrolo[1,2-b]isoquinoline derivatives” (Eur J Med Chem, 2020)
